Our source for the melting point values is US20020058686A1, “Medicament” (SmithKline Beecham p.l.c., priority 1990, published 2002).

For the molecule `CCCCc1nc2cc(Br)cc(C(=O)O)c2n1Cc1ccccc1Cl` [Example 4, 5-Bromo-2-n-butyl-1-(2-chlorophenyl)methyl-1H-benzimidazole-7-carboxylic Acid], the melting point (in general, the temperature, or range, at which the solid turns liquid) lay in the range of 254 to 255 °C.
In the case of `CCCSc1ncc(C[C@H](NC(=O)CCC)C(=O)O)n1Cc1ccccc1Cl` [Example 1, 3-[(2-Chlorophenyl)methyl]-2-propylthio-N-butyrylhistidine] it was 178 to 181 °C.
